Source: patent publication US11986471B2, “Compounds and methods of use” (Tango Therapeutics, Inc., priority 2018, dated 2024)

How the values were obtained:
PRMT5 [1] = target: T1, PRMT5 (Homo sapiens, UniProt O14744); assay: PRMT5 IC50 assay in the presence of SAM as cofactor; assay type: biochemical
T1 construct: purchased Viva (custom protein)
How it was run: (§1)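 Results given as IC50 (μM), from which Ki follows by dividing by 1.5 in the SAM condition or by 13.5 in the MTA condition. The ratio of SAM Ki to MTA Ki indicates MTA-cooperative preference.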

PRMT5 [2] = target: T1, PRMT5; assay: PRMT5 IC50 assay with no cofactor; assay type: biochemical
How it was run: as §1

PRMT5 [3] = target: T1, PRMT5; assay: PRMT5 IC50 assay in the presence of MTA as cofactor; assay type: biochemical; conditions: for IC50: PRMT5, MTA as cofactor; for SAM/MTA Ratio: ratio between the Ki in the presence of SAM and the Ki in the presence of MTA
How it was run: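 MTA-dependent versus SAM-dependent inhibition of human PRMT5 was assessed by IC50; conversion factors of 13.5 and 1.5 gave the corresponding Ki.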

HAP1 MTAP-intact = assay: SDMA in-cell western assay, HAP1 MTAP-intact cell line; assay type: cell-based; conditions: Homo sapiens
How it was run: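 Using an MTAP-isogenic HAP1 cell pair, inhibition of SDMA formation is read by in-cell western and expressed as IC50. MTAP-selectivity is assigned where the ratio between lines reaches 3 fold or greater.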

HAP1 MTAP-deleted = assay: SDMA in-cell western assay, HAP1 MTAP-deleted cell line; assay type: cell-based; conditions: for IC50: Homo sapiens, HAP1 MTAP-deleted cell line; for MTAP Intact/Deleted Ratio: IC50 ratio HAP1 MTAP-intact / HAP1 MTAP-deleted
How it was run: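 In-cell western for SDMA marks; MTAP-deleted (null) HAP1 background; values given as IC50.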

T1 sequence (O14744 whole entry): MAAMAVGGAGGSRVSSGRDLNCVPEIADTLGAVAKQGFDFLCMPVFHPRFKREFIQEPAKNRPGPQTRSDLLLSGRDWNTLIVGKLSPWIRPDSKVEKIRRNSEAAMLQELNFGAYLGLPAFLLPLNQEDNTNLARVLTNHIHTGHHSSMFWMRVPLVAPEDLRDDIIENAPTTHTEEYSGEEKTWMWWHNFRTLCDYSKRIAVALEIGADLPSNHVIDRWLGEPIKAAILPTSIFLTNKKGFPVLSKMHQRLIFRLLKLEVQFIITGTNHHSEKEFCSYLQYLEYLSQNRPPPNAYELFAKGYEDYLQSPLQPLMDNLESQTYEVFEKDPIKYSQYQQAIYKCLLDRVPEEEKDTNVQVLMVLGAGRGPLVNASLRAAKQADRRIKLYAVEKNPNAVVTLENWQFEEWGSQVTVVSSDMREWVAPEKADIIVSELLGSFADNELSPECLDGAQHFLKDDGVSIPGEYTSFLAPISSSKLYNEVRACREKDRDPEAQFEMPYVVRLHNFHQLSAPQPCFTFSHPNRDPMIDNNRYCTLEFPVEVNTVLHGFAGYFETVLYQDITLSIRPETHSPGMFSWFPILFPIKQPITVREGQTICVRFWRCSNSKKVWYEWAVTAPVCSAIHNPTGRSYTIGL
T1 sequence (Q9BQA1 whole entry partner): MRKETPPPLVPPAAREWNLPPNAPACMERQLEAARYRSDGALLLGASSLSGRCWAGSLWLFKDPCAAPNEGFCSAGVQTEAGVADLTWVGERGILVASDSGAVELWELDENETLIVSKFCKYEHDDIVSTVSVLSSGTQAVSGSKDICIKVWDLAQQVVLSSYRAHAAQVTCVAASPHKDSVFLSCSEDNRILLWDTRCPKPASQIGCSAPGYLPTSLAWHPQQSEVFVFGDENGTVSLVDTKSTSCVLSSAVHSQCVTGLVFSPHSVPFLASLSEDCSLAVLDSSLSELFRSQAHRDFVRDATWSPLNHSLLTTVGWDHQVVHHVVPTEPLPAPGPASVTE

CCN(C)c1cc(C(=O)NC[C@H](O)CN2CCc3cc(OCc4ocnc4C)ccc3C2)cc(NC2CCC2)n1 [Compound 489, 2-(cyclobutylamino)-6-[ethyl(methyl)amino]-N-[(2S)-2-hydroxy-3-{6-[(4-methyl-1,3-oxazol-5-yl)methoxy]-1,2,3,4-tetrahydroisoquinolin-2-yl}propyl]pyridine-4-carboxamide]
IC50 (PRMT5 [1]): 0.5 to 5 µM
IC50 (PRMT5 [2]): ≥ 5 µM
IC50 (PRMT5 [3]): 0.05 to 0.5 µM
SAM/MTA Ratio (PRMT5 [3]): A (a Ki ratio greater than or equal to 10 fold between the Ki in the presence of SAM and the Ki in the presence of MTA)
IC50 (HAP1 MTAP-intact): ≥ 10 µM
IC50 (HAP1 MTAP-deleted): 1 to 10 µM
MTAP Intact/Deleted Ratio (HAP1 MTAP-deleted): B* (an IC50 ratio greater than or equal to 3 fold but lower than 10 fold between the IC50 in the HAP1 MTAP-intact cell line and the HAP1 MTAP-deleted cell line)

Cc1ncoc1COc1ccc2c(c1Cl)CCN(C[C@@H](O)CNC(=O)c1cccc(NC3COC3)c1)C2 [Compound 490, N-[(2S)-3-[5-chloro-6-[(4-methyl-1,3-oxazol-5-yl)methoxy]-1,2,3,4-tetrahydroisoquinolin-2-yl}-2-hydroxypropyl]-3-[(oxetan-3-yl)amino]benzamide]
IC50 (PRMT5 [1]): 0.5 to 5 µM
IC50 (PRMT5 [2]): ≥ 5 µM
IC50 (PRMT5 [3]): 0.5 to 5 µM
SAM/MTA Ratio (PRMT5 [3]): A (a Ki ratio greater than or equal to 10 fold between the Ki in the presence of SAM and the Ki in the presence of MTA)
IC50 (HAP1 MTAP-intact): ≥ 10 µM
IC50 (HAP1 MTAP-deleted): ≥ 10 µM
MTAP Intact/Deleted Ratio (HAP1 MTAP-deleted): C* (an IC50 ratio of less than 3 fold between the IC50 in the HAP1 MTAP-intact cell line and the HAP1 MTAP-deleted cell line)

CC(=O)N1CCC(Nc2cc(C(=O)NC[C@H](O)CN3CCc4nc(OCc5ocnc5C)ccc4C3)ncn2)CC1 [Compound 491, 6-[(1-acetyl-4-piperidyl)amino]-N-[(2S)-2-hydroxy-3-[2-[(4-methyloxazol-5-yl)methoxy]-7,8-dihydro-5H-1,6-naphthyridin-6-yl]propyl]pyrimidine-4-carboxamide]
IC50 (PRMT5 [1]): 0.05 to 0.5 µM
IC50 (PRMT5 [2]): ≥ 5 µM
IC50 (PRMT5 [3]): 0.05 to 0.5 µM
SAM/MTA Ratio (PRMT5 [3]): A (a Ki ratio greater than or equal to 10 fold between the Ki in the presence of SAM and the Ki in the presence of MTA)
IC50 (HAP1 MTAP-intact): ≥ 10 µM
IC50 (HAP1 MTAP-deleted): 1 to 10 µM
MTAP Intact/Deleted Ratio (HAP1 MTAP-deleted): C* (an IC50 ratio of less than 3 fold between the IC50 in the HAP1 MTAP-intact cell line and the HAP1 MTAP-deleted cell line)

Cc1ncoc1COc1ccc2c(c1)CCN(C[C@@H](O)CNC(=O)c1cc(NC3COC3)nc(N3CCN(C(C)C)CC3)n1)C2 [Compound 492, N-[(2S)-2-hydroxy-3-{6-[(4-methyl-1,3-oxazol-5-yl)methoxy]-1,2,3,4-tetrahydroisoquinolin-2-yl}propyl]-6-[(oxetan-3-yl)amino]-2-[4-(propan-2-yl)piperazin-1-yl]pyrimidine-4-carboxamide]
IC50 (PRMT5 [1]): 0.05 to 0.5 µM
IC50 (PRMT5 [2]): ≥ 5 µM
IC50 (PRMT5 [3]): 0.05 to 0.5 µM
SAM/MTA Ratio (PRMT5 [3]): A (a Ki ratio greater than or equal to 10 fold between the Ki in the presence of SAM and the Ki in the presence of MTA)
IC50 (HAP1 MTAP-intact): 1 to 10 µM
IC50 (HAP1 MTAP-deleted): 1 to 10 µM
MTAP Intact/Deleted Ratio (HAP1 MTAP-deleted): C* (an IC50 ratio of less than 3 fold between the IC50 in the HAP1 MTAP-intact cell line and the HAP1 MTAP-deleted cell line)

Cc1ncoc1COc1ccc2c(c1)CCN(C[C@@H](O)CNC(=O)c1ccc3c(c1)CCN(C(=O)c1ccc(Br)cc1)C3)C2 [Compound 493]
IC50 (PRMT5 [1]): 0.05 to 0.5 µM
IC50 (PRMT5 [2]): 0.5 to 5 µM
IC50 (PRMT5 [3]): < 0.05 µM
SAM/MTA Ratio (PRMT5 [3]): A (a Ki ratio greater than or equal to 10 fold between the Ki in the presence of SAM and the Ki in the presence of MTA)
IC50 (HAP1 MTAP-intact): 1 to 10 µM
IC50 (HAP1 MTAP-deleted): < 1 µM
MTAP Intact/Deleted Ratio (HAP1 MTAP-deleted): B* (an IC50 ratio greater than or equal to 3 fold but lower than 10 fold between the IC50 in the HAP1 MTAP-intact cell line and the HAP1 MTAP-deleted cell line)

Cc1c(OCc2cnco2)ccc2c1CCN(C[C@@H](O)CNC(=O)c1ccnc(NC3CCN(C(=O)C4CCC4)CC3)c1)C2 [Compound 494, (S)-2-((1-(cyclobutanecarbonyl)piperidin-4-yl)amino)-N-(2-hydroxy-3-(5-methyl-6-(oxazol-5-ylmethoxy)-3N-dihydroisoquinolin-2(1H)-yl)propyl)isonicotinamide]
IC50 (PRMT5 [1]): 0.05 to 0.5 µM
IC50 (PRMT5 [2]): 0.5 to 5 µM
IC50 (PRMT5 [3]): 0.05 to 0.5 µM
SAM/MTA Ratio (PRMT5 [3]): A (a Ki ratio greater than or equal to 10 fold between the Ki in the presence of SAM and the Ki in the presence of MTA)
IC50 (HAP1 MTAP-intact): ≥ 10 µM
IC50 (HAP1 MTAP-deleted): 1 to 10 µM
MTAP Intact/Deleted Ratio (HAP1 MTAP-deleted): B* (an IC50 ratio greater than or equal to 3 fold but lower than 10 fold between the IC50 in the HAP1 MTAP-intact cell line and the HAP1 MTAP-deleted cell line)

CCC(=O)N1CC(Nc2cc(C(=O)NC[C@H](O)CN3CCc4c(ccc(OCc5cnco5)c4C)C3)ccn2)C1 [Compound 495, (S)—N-(2-hydroxy-3-(5-methyl-6-(oxazol-5-ylmethoxy)-3,4-dihydroisoquinolin-2(1H)-yl)propyl)-2-((1-propionylazetidin-3-yl)amino)isonicotinamide]
IC50 (PRMT5 [1]): 0.05 to 0.5 µM
IC50 (PRMT5 [2]): 0.5 to 5 µM
IC50 (PRMT5 [3]): 0.05 to 0.5 µM
SAM/MTA Ratio (PRMT5 [3]): A (a Ki ratio greater than or equal to 10 fold between the Ki in the presence of SAM and the Ki in the presence of MTA)
IC50 (HAP1 MTAP-intact): ≥ 10 µM
IC50 (HAP1 MTAP-deleted): ≥ 10 µM
MTAP Intact/Deleted Ratio (HAP1 MTAP-deleted): C* (an IC50 ratio of less than 3 fold between the IC50 in the HAP1 MTAP-intact cell line and the HAP1 MTAP-deleted cell line)

CCC(=O)N1CCC(Nc2cc(C(=O)NC[C@H](O)CN3CCc4c(ccc(OCc5cnco5)c4C)C3)ccn2)CC1 [Compound 496, (S)—N-(2-hydroxy-3-(5-methyl-6-(oxazol-5-ylmethoxy)-3N-dihydroisoquinolin-2(1H)-yl)propyl)-2-((1-propionylpiperidin-4-yl)amino)isonicotinamide]
IC50 (PRMT5 [1]): 0.05 to 0.5 µM
IC50 (PRMT5 [2]): 0.5 to 5 µM
IC50 (PRMT5 [3]): 0.05 to 0.5 µM
SAM/MTA Ratio (PRMT5 [3]): A (a Ki ratio greater than or equal to 10 fold between the Ki in the presence of SAM and the Ki in the presence of MTA)
IC50 (HAP1 MTAP-intact): ≥ 10 µM
IC50 (HAP1 MTAP-deleted): 1 to 10 µM
MTAP Intact/Deleted Ratio (HAP1 MTAP-deleted): B* (an IC50 ratio greater than or equal to 3 fold but lower than 10 fold between the IC50 in the HAP1 MTAP-intact cell line and the HAP1 MTAP-deleted cell line)

CC(=O)N1CCN(c2cc(C(=O)NC[C@H](O)CN3CCc4cc(OCc5cnco5)ccc4C3)cc(NC3CCC3)n2)CC1 [Compound 497, (S)-2-(4-acetylpiperazin-1-yl)-6-(cyclobutylamino)-N-(2-hydroxy-3-(6-(oxazol-5-ylmethoxy)-3N-dihydroisoquinolin-2(1H)-yl)propyl)isonicotinamide]
IC50 (PRMT5 [1]): 0.05 to 0.5 µM
IC50 (PRMT5 [2]): 0.5 to 5 µM
IC50 (PRMT5 [3]): 0.05 to 0.5 µM
SAM/MTA Ratio (PRMT5 [3]): A (a Ki ratio greater than or equal to 10 fold between the Ki in the presence of SAM and the Ki in the presence of MTA)
IC50 (HAP1 MTAP-intact): 1 to 10 µM
IC50 (HAP1 MTAP-deleted): < 1 µM
MTAP Intact/Deleted Ratio (HAP1 MTAP-deleted): C* (an IC50 ratio of less than 3 fold between the IC50 in the HAP1 MTAP-intact cell line and the HAP1 MTAP-deleted cell line)

COc1ccc(C(=O)N2CCc3cc(C(=O)NC[C@H](O)CN4CCc5cc(OCc6ocnc6C)ccc5C4)ccc3C2)cc1 [Compound 498, (S)—N-(2-hydroxy-3-(6-((4-methyloxazol-5-yl)methoxy)-3,4-dihydroisoquinolin-2(1H)-yl)propyl)-2-(4-methoxybenzoyl)-1,2,3,4-tetrahydroisoquinoline-6-carboxamide]
IC50 (PRMT5 [1]): 0.05 to 0.5 µM
IC50 (PRMT5 [2]): 0.5 to 5 µM
IC50 (PRMT5 [3]): 0.05 to 0.5 µM
SAM/MTA Ratio (PRMT5 [3]): A (a Ki ratio greater than or equal to 10 fold between the Ki in the presence of SAM and the Ki in the presence of MTA)
IC50 (HAP1 MTAP-intact): 1 to 10 µM
IC50 (HAP1 MTAP-deleted): < 1 µM
MTAP Intact/Deleted Ratio (HAP1 MTAP-deleted): B* (an IC50 ratio greater than or equal to 3 fold but lower than 10 fold between the IC50 in the HAP1 MTAP-intact cell line and the HAP1 MTAP-deleted cell line)

CC(=O)N1CCN(c2nc(NC3COC3)cc(C(=O)NC[C@H](O)CN3CCc4c(ccc(OCc5ocnc5C)c4C)C3)n2)CC1 [Compound 499, 2-(4-acetylpiperazin-1-yl)-N-[(2S)-2-hydroxy-3-{5-methyl-6-[(4-methyl-1,3-oxazol-5-yl)methoxy]-1,2,3,4-tetrahydroisoquinolin-2-yl}propyl]-6-[(oxetan-3-yl)amino]pyrimidine-4-carboxamide]
IC50 (PRMT5 [1]): 0.5 to 5 µM
IC50 (PRMT5 [2]): ≥ 5 µM
IC50 (PRMT5 [3]): 0.05 to 0.5 µM
SAM/MTA Ratio (PRMT5 [3]): A (a Ki ratio greater than or equal to 10 fold between the Ki in the presence of SAM and the Ki in the presence of MTA)
IC50 (HAP1 MTAP-intact): ≥ 10 µM
IC50 (HAP1 MTAP-deleted): ≥ 10 µM
MTAP Intact/Deleted Ratio (HAP1 MTAP-deleted): C* (an IC50 ratio of less than 3 fold between the IC50 in the HAP1 MTAP-intact cell line and the HAP1 MTAP-deleted cell line)

Cc1ncoc1COc1ccc2c(c1C)CCN(C[C@@H](O)CNC(=O)c1cc(NC3CCC3)nc(OCCN(C)C)c1)C2 [Compound 500, 2-(cyclobutylamino)-6-[2-(dimethylamino)ethoxy]-N-[(2S)-2-hydroxy-3-{5-methyl-6-[(4-methyl-1,3-oxazol-5-yl)methoxy]-1,2,3,4-tetrahydroisoquinolin-2-yl}propyl]pyridine-4-carboxamide]
IC50 (PRMT5 [1]): 0.05 to 0.5 µM
IC50 (PRMT5 [2]): 0.5 to 5 µM
IC50 (PRMT5 [3]): 0.05 to 0.5 µM
SAM/MTA Ratio (PRMT5 [3]): A (a Ki ratio greater than or equal to 10 fold between the Ki in the presence of SAM and the Ki in the presence of MTA)
IC50 (HAP1 MTAP-intact): ≥ 10 µM
IC50 (HAP1 MTAP-deleted): < 1 µM
MTAP Intact/Deleted Ratio (HAP1 MTAP-deleted): A* (an IC50 ratio greater than or equal to 10 fold between the IC50 in the HAP1 MTAP-intact cell line and the HAP1 MTAP-deleted cell line)
